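48-hour exposure; five concentrations; linearly interpolated endpoints. Definition used: TGI = concentration required for complete inhibition of growth.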
Columns and labels:
Assay in all cases: inhibition of tumour cell growth, NCI panel, 48 h
[1] = test system: OVCAR-3 ovarian
[2] = test system: DU-145 prostate
[3] = test system: OVCAR-4 ovarian
[4] = test system: SR leukemia
[5] = test system: RPMI-8226 leukemia
[6] = test system: SNB-19 CNS
[7] = test system: TK-10 renal
[8] = test system: UO-31 renal
[9] = test system: COLO 205 colon
[10] = test system: HCC-2998 colon
[11] = test system: HOP-62 NSCLC
[12] = test system: NCI-H460 lung
[13] = test system: SF-268 CNS
[14] = test system: 786-0 renal
[15] = test system: OVCAR-5 ovarian
[16] = test system: SW-620 colon
[17] = test system: NCI-H226 lung
[18] = test system: CAKI-1 renal
[19] = test system: SK-MEL-28 melanoma
[20] = test system: BT-549 breast

SMILES | TGI [1] | TGI [2] | TGI [3] | TGI [4] | TGI [5] | TGI [6] | TGI [7] | TGI [8] | TGI [9] | TGI [10] | TGI [11] | TGI [12] | TGI [13] | TGI [14] | TGI [15] | TGI [16] | TGI [17] | TGI [18] | TGI [19] | TGI [20]
CC(=O)N1CN2C(=O)CCC2c2ccccc21 (configuration not stated) | > 100 µM | > 100 µM | > 100 µM | 97.9 µM | > 100 µM | > 100 µM | > 100 µM | > 100 µM | > 100 µM | > 100 µM | > 100 µM | > 100 µM | > 100 µM | > 100 µM | > 100 µM | > 100 µM | > 100 µM | > 100 µM | > 100 µM | 
O=C1Cc2c([nH]c3c(Cl)cccc23)-c2ccccc2N1 | > 100 µM | > 100 µM | > 100 µM | > 100 µM | > 100 µM | > 100 µM | > 100 µM | > 100 µM | > 100 µM |  | > 100 µM | > 100 µM | > 100 µM | > 100 µM | > 100 µM | > 100 µM | > 100 µM |  | > 100 µM | > 100 µM
CC1=NNC(=O)C1C1CC(c2c[nH]c3ccccc23)=NNC1=S (configuration not stated) | > 100 µM | > 100 µM |  |  | > 100 µM | > 100 µM | > 100 µM | > 100 µM | > 100 µM |  | > 100 µM | > 100 µM | > 100 µM | > 100 µM | > 100 µM | > 100 µM | > 100 µM | > 100 µM | > 100 µM | > 100 µM
N#Cc1c2c(c(Nc3cccc(C(F)(F)F)c3)n3c1nc1ccccc13)CCC2 | > 100 µM | > 100 µM | > 100 µM |  | > 100 µM |  | > 100 µM |  | > 100 µM |  | > 100 µM |  | > 100 µM | > 100 µM | > 100 µM | > 100 µM | > 100 µM | > 100 µM | > 100 µM | > 100 µM
CCOC(O)(NC(=O)C(C(F)(F)F)C(F)(F)F)C(F)(F)F (configuration not stated) |  |  |  | > 100 µM | > 100 µM | > 100 µM | > 100 µM | > 100 µM | > 100 µM | > 100 µM |  |  | > 100 µM | > 100 µM | > 100 µM | > 100 µM |  |  | > 100 µM | > 100 µM
COc1cc2c(c(O)c1OC)C(O)C1CCC(=O)N1C2c1cccc2ccccc12 (configuration not stated) | > 100 µM | > 100 µM | > 100 µM | > 100 µM | > 100 µM | > 100 µM |  | > 100 µM | > 100 µM |  | > 100 µM | > 100 µM | > 100 µM | > 100 µM | > 100 µM | > 100 µM | > 100 µM | > 100 µM | > 100 µM | > 100 µM
N#CC(c1nc2ccccc2s1)c1ncnc(Cl)c1[N+](=O)[O-] (configuration not stated) | 47.8 µM | > 100 µM | > 100 µM |  | > 100 µM | > 100 µM | > 100 µM | 91.3 µM | 29.8 µM |  | 97.2 µM | 47.1 µM | 32.9 µM | 42.7 µM | 91.7 µM | 35.5 µM | 83.3 µM | > 100 µM | 38.7 µM | 56.3 µM
Nc1ccc(-c2cssc2=S)cc1 |  |  | > 100 µM |  | 5.65 µM | > 100 µM | > 100 µM | > 100 µM | > 100 µM | > 100 µM | > 100 µM | > 100 µM | > 100 µM | > 100 µM | > 100 µM | > 100 µM | > 100 µM | > 100 µM | > 100 µM | > 100 µM
O=c1[nH]cnc2c1sc1nc3ccccc3n12 | > 100 µM | > 100 µM | > 100 µM |  | > 100 µM | > 100 µM | > 100 µM | > 100 µM | > 100 µM | > 100 µM | > 100 µM |  | > 100 µM | > 100 µM | > 100 µM | > 100 µM | > 100 µM | > 100 µM | > 100 µM | > 100 µM
Cc1nc2ccc(Cl)cc2c2c1CCS2 | > 100 µM | > 100 µM | > 100 µM | 86.6 µM | 71.4 µM | > 100 µM | > 100 µM | > 100 µM | > 100 µM | > 100 µM | > 100 µM | > 100 µM | > 100 µM | > 100 µM | > 100 µM | > 100 µM | > 100 µM | > 100 µM | > 100 µM | 
COC(=O)C1=C(C(=O)OC)C(Cc2ccccc2)(OO)OC1=O (configuration not stated) | 19.7 µM | > 100 µM | 52.3 µM | > 100 µM |  | 58.9 µM | 15 µM | 26.9 µM | > 100 µM | > 100 µM |  | > 100 µM |  | > 100 µM | 54.2 µM | > 100 µM | 35.9 µM | 19.4 µM | > 100 µM | 26.3 µM
CC(C)CC[C@H](O)[C@@H](C)[C@H]1[C@@H](OC2OC(C)C(O)C(O)C2O)C[C@H]2[C@@H]3CC=C4C[C@@H](O)CC[C@]4(C)[C@H]3[C@@H](O)C[C@]12C (some centres not stated) | > 100 µM | > 100 µM |  |  | 0.229 µM | > 100 µM | > 100 µM | 21.7 µM | 7.17 µM | > 100 µM | > 68.7 µM | > 100 µM | > 100 µM | > 100 µM | > 100 µM | > 19.9 µM |  | > 64 µM | 6.47 µM | > 100 µM
O=C(NCCCCN(CCCNC(=O)C(F)(F)F)Cc1ccc2ccccc2c1)C(F)(F)F |  | 56.1 µM | 37.8 µM |  |  | 29 µM | 47.9 µM | 20.5 µM | 30.3 µM | 26.8 µM |  | 29.9 µM | 31.9 µM | 30.6 µM | 32.6 µM | 32.4 µM | 56.8 µM | 28.1 µM | 31.5 µM | 36.5 µM

— PubChem BioAssay (NCI)
